From ChEMBL document CHEMBL1157539, “Thousands of chemical starting points for antimalarial lead identification” (Nature, 2010)

System: Plasmodium falciparum
Test: GSK_TCMDC: Inhibition of Plasmodium falciparum 3D7 in whole erythrocytes, using parasite LDH activity as an index of growth.
Format: functional, organism-based
Details: Plasmodium falciparum, 3D7

| Structure (SMILES) | XC50 |
| --- | --- |
| COc1ccc2c(N/N=C/c3ccccc3[N+](=O)[O-])ccnc2c1 | 0.739 µM |
| CCN(CC)CCN(Cc1ccc(-c2ccc(C(F)(F)F)cc2)cc1)C(=O)Cn1c(/C=C/c2ccco2)nc(=O)c2ccccc21 | 0.87 µM |
| CC1(C(=O)Nc2ccc([N+](=O)[O-])cc2O)CC2c3ccccc3C1c1ccccc12 (stereo not drawn) | 0.715 µM |
| N#Cc1cccc(-c2cccc(C(=O)NC3CCC(CCN4CCc5ccc(C#N)cc5CC4)CC3)c2)c1 (stereo not drawn) | 0.265 µM |
| CCN1CCN(Cc2ccc(NC(=O)c3cc4ccc5cccnc5c4[nH]3)cc2)CC1 | 0.848 µM |
| O=C(Nc1cc(Cl)cc(Cl)c1)c1cnn(-c2ccc(F)cc2)c1C1CCNCC1 | 0.853 µM |
| COc1ccc2nc3cc(Cl)ccc3c(NCCCN3CCNCC3)c2c1 | 0.232 µM |
| Nc1ncc(-c2ccccc2)cc1-c1cccc2ncccc12 | 0.272 µM |
| COc1cc(CN2CCC(CO)(Cc3cccc(C(F)(F)F)c3)CC2)c(Cl)cc1O | 0.896 µM |
| CN1CCCc2cc(NC(=O)C=Cc3ccc(-c4ccc(F)cc4F)o3)ccc2C1 | 0.783 µM |
| CC(C)C[C@H](NC(=O)c1cc2ccccc2s1)C(=O)N[C@H]1CCN(Cc2ccc(OC[C@@H]3CCCN3C)c3ccccc23)C1 | 1.16 µM |
| COc1cccc(C(=O)Nc2ccc(Nc3nc(C)cc(N(C)C)n3)cc2)c1 | 0.94 µM |
| OCCN1CCN(C(=S)Nc2ccccc2)CC1 | 0.936 µM |
| Clc1ccc(-c2cc(-c3csc(NCCN4CCOCC4)n3)on2)c(Cl)c1 | 0.66 µM |
| CC(C)OC(=O)c1ccc(NC(=O)N[C@@H](Cc2ccc(O)cc2)C(=O)NC2CCC(CCN3C4CCC3c3ccccc34)CC2)cc1 (stereo partly drawn) | 0.829 µM |
| O=C(/C=C/c1ccc(Cl)c(Cl)c1)NC1CCN(Cc2cccc(O)c2)CC1 | 0.88 µM |
| COC(=O)c1ccc2c(-c3nc4ccc(OC)cc4[nH]3)c[nH]c2c1 | 0.876 µM |
| Cc1ccc(Nc2nc(C)cc(NC3CC3)n2)cc1 | 1.22 µM |
| Cc1cccc(-c2ccc(NC(=O)C3CCN(Cc4cccc(O)c4)CC3)cc2)c1 | 0.975 µM |
| COc1cc2ccccc2c(OC)c1CCNCCCCNCCc1c(OC)cc2ccccc2c1OC | 0.891 µM |
| CC(C)C[C@H]1C(=O)N[C@H](C2Cc3ccccc3C2)C(=O)N1[C@@H](C(=O)Nc1ccccc1OCc1ccccc1)c1ccc(F)cc1F | 1.02 µM |
| COc1ccc2nccc([C@@H](O)CN3CCC(NCc4cc5sccc5nc4C(F)(F)F)CC3)c2c1 | 0.913 µM |
| Cc1ccccc1C1CCN(C2CCC(NC(=O)/C=C/c3c[nH]c4ccccc34)CC2)CC1 (stereo not drawn) | 0.81 µM |
| CNc1ccc(CNCc2ccc(-c3ccc(-c4nc5cccc(C)c5[nH]4)s3)cc2)cc1 | 0.661 µM |
| Cc1[nH]c2ccccc2c1C1CCN(CCCCNC(=O)c2ccc(-c3ccc(C#N)cc3)cc2)CC1 | 0.704 µM |

| Structure (SMILES) | XC50 |
| --- | --- |
| COc1ccccc1CCNc1nc(C)cc(N[C@@H](Cc2ccccc2)C(=O)NCc2cccc(F)c2)n1 | 0.867 µM |
| CC(C)c1ccc(NC(=O)Nc2ccc(Cn3ncc(N4CCCNCC4)c(Cl)c3=O)cc2)cc1 | 1.05 µM |
| O=C(Nc1ccc(OC2CCN(Cc3ccsc3)C2)c(Cl)c1)c1ccsc1 (stereo not drawn) | 1.02 µM |
| CN1CCC(C(=O)N(Cc2ccc(-c3ccc(CNCCc4ccccc4)cn3)cc2)C2Cc3ccccc3C2)CC1 | 1.06 µM |
| CC(C)(C)CC(C)(C)c1ccc(O)c(CNC2CCCCC2)c1 | 0.0649 µM |
| CC(C)(C)c1ccc(CN2CCC(NC(=O)c3ccc(-c4ccccc4Cl)s3)CC2)cc1 | 1.35 µM |
| CC(C)COc1ccc(Cl)cc1Cc1ccc(-c2nc3ccc(F)cc3[nH]2)o1 | 0.854 µM |
| CC1CCNc2ccc(Cc3cnc(N)nc3N)cc21 (stereo not drawn) | 1.04 µM |
| N=c1sc2ccccc2n1CC(O)c1ccc(Cl)c(Cl)c1 (stereo not drawn) | 0.8 µM |
| Nc1c2c(nc3ccc(Oc4ccc(Cl)cc4)cc13)CCCC2 | 0.972 µM |
| C=CCn1c(SCC(=O)Nc2cc(C)ccc2OC)nc2sc(C)cc2c1=O | 0.417 µM |
| CCCOc1cccc(C(=O)N[C@@H](Cc2ccccc2)[C@H](O)CNCc2ccccc2OC)c1 | 0.883 µM |
| O=C(Nc1cc(C(F)(F)F)cc(C(F)(F)F)c1)c1cc(C(F)(F)F)cc(C(F)(F)F)c1 | 0.872 µM |
| COc1ccc2nccc([C@@H](O)CN3CCC(NCCOc4cccc(F)c4F)CC3)c2c1 | 0.244 µM |
| COc1ccc(-c2ccc(NC(=O)c3cccc(C#N)c3)cc2)cc1CN1CCNCC1 | 0.728 µM |
| COc1ccccc1CCNc1nc(C)cc(N[C@@H](Cc2ccccc2)C(=O)NCCc2ccccc2)n1 | 1.11 µM |
| CC(Cc1ccc(OCCCCOc2ccccc2)cc1)NCCCn1ccnc1 (stereo not drawn) | 0.167 µM |
| O=C(COc1ccc(Cl)c(Cl)c1)NCCCCCN1CCCN(C(=O)Nc2cc(Cl)cc(Cl)c2)CC1 | 1.14 µM |
| CC(C)C[C@@H](NC(=O)NC1CCC(CCN2C3CCC2CC(OC(=O)C(CO)c2ccccc2)C3)CC1)C(O)(c1ccccc1)c1ccccc1 (stereo partly drawn) | 1.07 µM |
| Cc1cc(=NN=Cc2ccccc2F)c2ccccc2[nH]1 | 0.919 µM |
| C[C@@H](COc1ccc(-c2ccccc2)cc1)CON1C(N)=NC(N)=NC1(C)C | 0.0032 µM |
| N=c1n(CCN2CCCCC2)c2ccccc2n1CC(O)c1ccc(Cl)c(Cl)c1 (stereo not drawn) | 0.32 µM |
| NC1CCN(c2nc(NCCCc3ccc(O)cc3)nc(NCc3ccccc3-c3ccc(C(F)(F)F)cc3)n2)CC1 | 0.727 µM |
| O=C(NCCCCN1CCC(c2ccc(-c3ccco3)cc2)CC1)c1ccc(NC(=O)c2ccc(Cl)cc2)cc1 | 0.538 µM |
| CC/N=C(/NCCCCCCN/C(=N/CC)NCc1ccccc1)NCc1ccccc1 | 0.702 µM |

| Structure (SMILES) | XC50 |
| --- | --- |
| OCCN1CCN(Cc2ccc(-c3ccc(-c4nc5cc(C(F)(F)F)ccc5[nH]4)s3)cc2)CC1 | 0.379 µM |
| CCCCCCN1CCN(Cc2cccc(NC(=O)c3cc4ccccc4s3)c2)CC1 | 0.912 µM |
| O=C(NCCCN1CCCC1=O)c1cnc(N2CCC(Oc3ccccc3)CC2)c(Cl)c1 | 0.305 µM |
| O=C(C=Cc1ccc(-c2nc3ccccc3[nH]2)cc1)NC1CCN(Cc2ccccc2)CC1 | 0.74 µM |
| Cc1ccc(Nc2nc(C)cc(Nc3cccc(C#N)c3)n2)cc1 | 0.978 µM |
| N#Cc1cccc(C(=O)Nc2cccc(-c3ccc(CN4CCC(O)CC4)cc3)c2)c1 | 1.3 µM |
| O=C(Nc1cccc(Cl)c1N1CCOCC1)C(Cl)(Cl)Cl | 0.983 µM |
| Cc1nc(C)c(-c2ccc(S(=O)(=O)c3ccc(Cl)cc3)cc2)c(O)c1Cl | 0.14 µM |
| Cc1cccc2nc(-c3cccc(-c4cccc(NC(=O)C(C)CN5CCN(C)CC5)c4)c3)[nH]c12 (stereo not drawn) | 0.537 µM |
| NC(=O)c1cnc2ccc(-c3cncs3)cc2c1Nc1ccc(F)c(Cl)c1 | 0.182 µM |
| COc1ccc(Nc2nccc(N3CCC(NC(=O)c4cccc(C#N)c4)C3)n2)cc1 (stereo not drawn) | 0.819 µM |
| NC1CCCN(Cc2cccc(-c3ccc(-c4nc5cc(C(F)(F)F)ccc5[nH]4)cc3)c2)C1 (stereo not drawn) | 0.518 µM |
| FC(F)(F)c1ccc2c(NCCc3ccccc3)ccnc2c1 | 1.27 µM |
| CC(C)CN(c1nc(C(=O)NNC(=O)[C@H](CC2CC2)NC(=O)c2cc3cc(OCCN(C)C)ccc3o2)cs1)C1CC1 | 1.03 µM |
| CN(C(=O)NCCc1ccccc1)C1CCN(CCCCCNC(=O)/C=C/c2ccc(Cl)c(Cl)c2)CC1 | 0.678 µM |
| CCNC(=O)Nc1cccc(-c2ccc(-c3nc4cccc(C)c4[nH]3)s2)c1 | 0.766 µM |
| O=C(Nc1ccc(Cn2ncc(N3CCCNCC3)c(Cl)c2=O)cc1)Nc1cccc(C(F)(F)F)c1 | 0.64 µM |
| CC(=O)Nc1cccc(CNc2cc(C)nc(Nc3ccc(C)cc3)n2)c1 | 1.14 µM |
| COc1ccc(NC(=O)NCC2CCCN(CCCCCNC(=O)/C=C/c3ccc(Cl)c(Cl)c3)C2)c(OC)c1 (stereo not drawn) | 0.859 µM |
| O=C(Nc1ccc(C(F)(F)F)cc1)c1cc(Br)cnc1NCCCn1ccnc1 | 0.968 µM |
| COc1cc(Cc2cnc(N)nc2N)ccc1OCc1cccc(Oc2ccccc2)c1 | 1.33 µM |
| Cc1cccc2nc(-c3cccc(-c4cccc(C(=O)NCCN5CCCC5)c4)c3)[nH]c12 | 0.833 µM |
| COc1cccc(CNC[C@@H](O)[C@H](Cc2ccccc2)NC(=O)c2cc(OC(C)C)cc(N3CCCCS3(=O)=O)c2)c1 | 0.73 µM |
| COc1nc2c(CCN3CC[C@H](NCc4cc(C#N)c5c(c4)OCCO5)[C@H](O)C3)ccnc2cc1F | 0.783 µM |
| CN(C)C(=O)c1cc(CNCc2ccccc2)ccc1-c1cccc(CNCc2ccc(-c3ccccc3)cc2)c1 | 1.05 µM |

| Structure (SMILES) | XC50 |
| --- | --- |
| CCN(CC)c1ccccc1CNC(=O)c1cc(Cl)c(N)cc1OC | 0.213 µM |
| N#Cc1ccc(CN2CCC(Oc3ccc(NC(=O)c4ccsc4)cc3Cl)C2)cc1 (stereo not drawn) | 0.674 µM |
| CN(c1ccc2c(c1)nc(Nc1ccc(Cl)cc1)n2C)c1ccnc(Nc2ccc(CS(C)(=O)=O)cc2)n1 | 0.758 µM |
| CC(=O)Nc1ccc(C#Cc2ccc(-c3c(C)[nH]c(C)c(Cl)c3=O)cc2)cc1 | 0.462 µM |
| CC(C)N1CCN(CCCCNc2c3ccccc3nc3ccccc23)CC1 | 0.54 µM |
| O=C1Nc2ccc3ncccc3c2/C1=C/Nc1ccc(N2CCN(CCO)CC2)cc1 | 1.27 µM |
| COc1ccc(-c2ccc(NC(=O)c3ccc(C#N)cc3)cc2)cc1CN1CCNCC1 | 0.505 µM |
| NC(=O)c1ccsc1NC(=O)CNC(c1ccccc1)c1ccccc1 | 0.938 µM |
| COc1ccc2nc3cc(Cl)ccc3c(NCCNCC(O)CO)c2n1 (stereo not drawn) | 0.152 µM |
| O=C(C1CCCCC1)N1CCOC(CCN2CCC(c3ccccc3)CC2)(c2ccc(Cl)c(Cl)c2)C1 (stereo not drawn) | 0.93 µM |
| COc1ccc(NC(=O)Nc2nc3ccccc3s2)cc1N1CCN(C)CC1 | 0.703 µM |
| Cc1cc(CNCC(CCNc2cc(=O)c3ccccc3[nH]2)NCc2cc(Br)cc(Br)c2)oc1C (stereo not drawn) | 0.894 µM |
| COc1cc(C(=O)Nc2ccc3nc(N4CCN(C)CC4)cc(C)c3c2)cc(OC)c1OC | 0.289 µM |
| COc1cc2c(cc1N1CC(C)NC(C)C1)N(C(=O)c1ccc(-c3ccc(-c4ncc[nH]4)cc3C)cc1)CC2 (stereo not drawn) | 0.717 µM |
| O=C(C1CC1)N1c2ccccc2CCc2ccccc21 | 0.833 µM |
| O=C(NCC1CCC(C(=O)NC2CCCc3ccccc32)CC1)c1ccc(O)c(-c2cccc([N+](=O)[O-])c2)c1 (stereo not drawn) | 0.942 µM |
| O=S(=O)(NCCN1CCCC1)c1ccc(-c2ccc(CNCc3ccccc3)cc2)cc1F | 1.29 µM |
| O=C1Nc2cccc3c2C1(CCCCCN1CCC(c2c[nH]c4ccncc24)CC1)CCC3 (stereo not drawn) | 0.99 µM |
| CCNc1cc(C(=O)N[C@@H](Cc2ccccc2)[C@H](O)CNC2CC3CCC2C3)cc(N2CCCCS2(=O)=O)c1 (stereo partly drawn) | 0.237 µM |
| CCC[C@@H]([C@@H](CC(C)C)C(=O)N[C@@H](CCCCNC(=O)c1cccc(OC)c1)C(=O)Nc1nccs1)N(O)C=O | 0.104 µM |
| Nc1n[nH]c(-c2ccccc2Nc2ccnc3cc(-c4nccs4)ccc23)n1 | 1.12 µM |
| COCCNCc1cccc(-c2ccc3c(Nc4ccc(F)cc4Cl)ccnc3c2)c1 | 0.68 µM |
| COc1cc(SC)ccc1C(=O)N1CC(C)CC(C)C1 (stereo not drawn) | 0.354 µM |
